molecular target: T1, h5-HT5A receptor (Homo sapiens, UniProt P47898); test: h5-HT5A [3H]5-CT binding assay; conditions: affinity for 5-HT5A; membranes of HEK293 cells expressing the h5-HT5A receptor gene, 2.5 nM [3H]5-CT
T1 construct: expressed in transfected cells; membranes used
Description: h5-HT5A [^3H]5-CT Binding Assay
Membranes of HEK293 cells which permanently express the h5-HT5A receptor gene were incubated in 100 mM tris-HCl buffer (pH 7.7) containing 1 mM EDTA, in the presence of 2.5 nM [^3H]5-CT (total volume 600 μL). The total binding is defined as the binding that is observed when the membranes are incubated in the presence of only the radioligand. The inhibition induced by the compound is determined by incubation of cell membranes in the presence of the radioligand and various concentrations of the compound of interest. Nonspecific binding is defined as the [^3H]5-CT binding obtained by incubation of the membranes, the same as for the total binding, but in the presence of 10 μM methiothepine. Following incubation for 75 min at 30° C., the membrane suspension was filtered through a GF/B-Filter coated with 0.03% PEI, using a Skatron® harvesting system. The residual radioactivity in the filter was quantified by liquid scintillation counting.
Various concentrations of the test substances were used in both assays, and the Ki or IC50 values were determined.

T1 sequence (P47898 whole entry): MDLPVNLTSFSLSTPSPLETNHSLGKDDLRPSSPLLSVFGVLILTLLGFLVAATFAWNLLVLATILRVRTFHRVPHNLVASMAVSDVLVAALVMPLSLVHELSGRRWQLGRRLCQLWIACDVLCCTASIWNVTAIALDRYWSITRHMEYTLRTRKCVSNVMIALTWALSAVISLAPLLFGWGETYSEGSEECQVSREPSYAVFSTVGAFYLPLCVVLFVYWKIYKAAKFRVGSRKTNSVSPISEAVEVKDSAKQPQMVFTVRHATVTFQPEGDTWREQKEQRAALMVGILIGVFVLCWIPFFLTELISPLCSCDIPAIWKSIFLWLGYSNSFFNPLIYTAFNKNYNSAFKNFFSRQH

Ki, < 100 nM:
COc1cccc(OC)c1CNC(=N)Nc1ccc(Cc2ccccc2)cn1 [Example 68, N-(5-Benzylpyridin-2-yl)-N′-(2,6-dimethoxybenzyl)guanidine acetate]
COc1ccccc1CNC(=N)Nc1cccc(Cc2ccccc2)n1 [Example 69, N-(6-Benzylpyridin-2-yl)-N′-(2-methoxybenzyl)guanidine acetate]
COc1cccc(OC)c1CNC(=N)Nc1cccc(Cc2ccccc2)n1 [Example 70, N-(6-Benzylpyridin-2-yl)-N′-(2,6-dimethoxybenzyl)guanidine acetate]
COc1cccc(C)c1CNC(=N)Nc1cccc(Br)n1 [Example 71, N-(6-Bromopyridin-2-yl)-N′-(2-methoxy-6-methylbenzyl)guanidine]
COc1cccc(F)c1CNC(=N)Nc1cccc(Br)n1 [Example 72, N-(6-Bromopyridin-2-yl)-N′-(2-fluoro-6-methoxybenzyl)guanidine]
N=C(NCc1ccccc1OC(F)(F)F)Nc1cccc(Br)n1 [Example 73, N-(6-Bromopyridin-2-yl)-N′-[2-(trifluoromethoxy)benzyl]guanidine]
CC(C)Oc1ccccc1CNC(=N)Nc1cccc(Br)n1 [Example 74, N-(6-Bromopyridin-2-yl)-N′-(2-isopropoxybenzyl)guanidine]
CCOc1ccccc1CNC(=N)Nc1cccc(Br)n1 [Example 75, N-(6-Bromopyridin-2-yl)-N′-(2-ethoxybenzyl)guanidine acetate]
COc1cccc(C)c1CNC(=N)Nc1cccc(C#N)n1 [Example 76, N-(2-Methoxy-6-methylbenzyl)-N′-(6-cyanopyridin-2-yl)guanidine acetate]
COc1cccc(F)c1CNC(=N)Nc1cccc(C#N)n1 [Example 77, N-(6-Cyanopyridin-2-yl)-N′-(2-fluoro-6-methoxybenzyl)guanidine acetate]
COc1cccc(Cl)c1CNC(=N)Nc1cccc(C#N)n1 [Example 78, N-(2-Chloro-6-methoxybenzyl)-N′-(6-cyanopyridin-2-yl)guanidine acetate]
N#Cc1cccc(NC(=N)NCc2ccccc2OC(F)(F)F)n1 [Example 79, N-(6-Cyanopyridin-2-yl)-N′-[2-(trifluoromethoxy)benzyl]guanidine acetate]
CC(C)Oc1ccccc1CNC(=N)Nc1cccc(C#N)n1 [Example 80, N-(6-Cyanopyridin-2-yl)-N′-(2-isopropoxybenzyl)guanidine acetate]
CCOc1ccccc1CNC(=N)Nc1cccc(C#N)n1 [Example 81, N-(6-Cyanopyridin-2-yl)-N′-(2-ethoxybenzyl)guanidine acetate]
N#Cc1cccc(NC(=N)NCc2c(Cl)cccc2Oc2ccccc2)n1 [Example 82, N-(2-Chloro-6-phenoxybenzyl)-N′-(6-cyanopyridin-2-yl)guanidine acetate]
COc1cccc(OC)c1CNC(=N)Nc1ccc(-c2ccccc2)cn1 [Example 83, N-(2,6-Dimethoxybenzyl)-N′-(5-phenylpyridin-2-yl) guanidine acetate]
COc1cccc(OC)c1CNC(=N)Nc1ccc(-c2ccc(F)cc2)cn1 [Example 84, N-(2,6-Dimethoxybenzyl)-N′-[5-(4-fluorophenyl)pyridin-2-yl]guanidine acetate]
COc1cccc(OC)c1CNC(=N)Nc1ccc(C#N)cn1 [Example 85, N-(5-Cyanopyridin-2-yl)-N′-(2,6-dimethoxybenzyl)guanidine acetate]
COc1ccccc1CNC(=N)Nc1ccc(-c2ccccc2)cn1 [Example 86, N-(2-Methoxybenzyl)-N′-(5-phenylpyridin-2-yl)guanidine]

From patent US9296697B2, “Hetaryl-substituted guanidine compounds and use thereof as binding partners for 5-HT5-receptors” (Abbott Laboratories, priority 2005, dated 2016)
